Reference: patent US20260130933A1, “PHARMACEUTICAL COMPOSITION FOR PREVENTION OR TREATMENT OF NEPHROPATHY AND/OR DIABETES MELLITUS, COMPRISING ENAVOGLIFLOZIN” (DAEWOONG PHARMACEUTICAL CO., LTD., priority 2022, published 2026)

Assay: Example 2: phase 3 trial, enavogliflozin 0.3 mg vs dapagliflozin 10 mg once a day for 24 weeks added to metformin in patients with type 2 diabetes (same efficacy, exploratory and safety endpoints)
Type: in vivo, human
Protocol: Subjects who met the inclusion/exclusion criteria were administered a placebo of the clinical trial drug under single-blind (subject blinding) conditions during a 2-week run-in period while continuing to receive metformin. […] The randomized subjects were administered two tablets of the clinical trial drug for each administration group once a day, and then visited the institution at weeks 6, 12, 18, and 24 during the 24-week administration period to conduct efficacy and safety evaluations.
• 1. Change in HbA1c at week 24 after administration of clinical trial drug compared to Visit 2 (randomization)
• 1. Change in HbA1c at each time point of weeks 6, 12, and 18 after administration of clinical trial drug compared to Visit 2 (randomization) • 2. Change in FPG at each time point of weeks 6, 12, 18, and 24 after administration of clinical trial drug compared to Visit 2 (randomization) • 3. Proportion of subjects achieving HbA1c<7% at each time point of weeks 6, 12, 18, and 24 after administration of clinical trial drug • 4. Proportion of subjects achieving HbA1c<6.5% at each time point of weeks 6, 12, 18, and 24 after administration of clinical trial drug • 5. Proportion of subjects achieving therapeutic response (HbA1c change (HbA1c at Visit 2-HbA1c at each evaluation time point)>0.5% or HbA1c<7% at each evaluation time point compared to Visit 2 (randomization)) at each time point of weeks 6, 12, 18 and 24 after administration of clinical trial drug
• 1. Change in fasting c-peptide at each time point of weeks 6, 12, 18, and 24 after administration of clinical trial drug compared to Visit 2 (randomization) • 2. Change in body weight at each time point of weeks 6, 12, 18, and 24 after administration of clinical trial drug compared to Visit 2 (randomization) • 3. Change in fasting lipid concentration (total cholesterol, LDL-C, HDL-C, and triglycerides) at each time point of weeks 6, 12, 18, and 24 after administration of clinical trial drug compared to Visit 2 (randomization) • 4. Changes in systolic or diastolic blood pressure at each time point of weeks 6, 12, 18, and 24 after administration of clinical trial drug compared to Visit 2 (randomization) • 5. Changes in β-cell function and insulin resistance measured by HOMA-β and HOMA-IR at each time point of weeks 6, 12, 18, and 24 after administration of clinical trial drug compared to Visit 2 (randomization) • 6. Changes in renal function-related indicators (UACR, UGCR) measured by UACR at each time point of weeks 6, 12, 18, and 24 after administration of clinical trial drug compared to Visit 2 (randomization) • 7. Changes in obesity-related indicators (adiponectin, leptin) at each time point of weeks 6, 12, 18, and 24 after administration of clinical trial drug compared to Visit 2 (randomization)

[1] = Week 12, mPPS1, enavogliflozin minus dapagliflozin
[2] = Week 12, mPPS2, enavogliflozin minus dapagliflozin
[3] = Week 18, PPS, enavogliflozin minus dapagliflozin

Q: With `OC[C@H]1O[C@@H](c2cc(Cc3ccc(C4CC4)cc3)c(Cl)c3c2CCO3)[C@H](O)[C@@H](O)[C@@H]1O` [Enavogliflozin, (2S,3R,4R,5S,6R)-2-(7-chloro-6 (4-cyclopropylbenzyl)-2,3-dihydrobenzofuran-4-yl)-6-(hydroxymethyl)tetrahydro-2H-pyran-3,4,5-triol] as the compound, how does the “HDL-C, Mean (SD)” value (Week 12, mPPS1) read?
A: 53.08(10.89) mg/dL

Q: And the “HDL-C, Median” value (Week 12, mPPS1)?
A: 52.50 mg/dL

Q: What about the “LDL-C change from baseline, ANCOVA LS mean (SE)” value (Week 12, mPPS1) of the same compound?
A: 1.86(1.68) mg/dL

Q: What about the “LDL-C change from baseline, Mean (SD)” value (Week 12, mPPS1) of the same compound?
A: 0.78(16.26) mg/dL

Q: And the “LDL-C change from baseline, Median” value (Week 12, mPPS1)?
A: 1.00 mg/dL

Q: And the “LDL-C, Mean (SD)” value (Week 12, mPPS1)?
A: 87.58(30.26) mg/dL

Q: And the “LDL-C, Median” value (Week 12, mPPS1)?
A: 79.00 mg/dL

Q: What about the “Triglycerides change from baseline, ANCOVA LS mean (SE)” value (Week 12, mPPS1) of the same compound?
A: −7.53(4.80) mg/dL

Q: And the “Triglycerides change from baseline, Mean (SD)” value (Week 12, mPPS1)?
A: −5.00(57.85) mg/dL

Q: What about the “Triglycerides change from baseline, Median” value (Week 12, mPPS1) of the same compound?
A: 3.00 mg/dL

Q: And the “Triglycerides, Mean (SD)” value (Week 12, mPPS1)?
A: 116.23(59.46) mg/dL

Q: What about the “Triglycerides, Median” value (Week 12, mPPS1) of the same compound?
A: 100.00 mg/dL

Q: And the “HDL-C change from baseline, LS mean difference” value [1]?
A: 0.06 mg/dL

Q: What about the “LDL-C change from baseline, LS mean difference” value [1] of the same compound?
A: 1.30 mg/dL

Q: What about the “triglycerides change from baseline, LS mean difference” value [1] of the same compound?
A: 2.57 mg/dL

Q: What about the “Diastolic blood pressure change from baseline, ANCOVA LS mean (SE)” value (Week 12, mPPS2) of the same compound?
A: −4.19 mmHg

Q: And the “Diastolic blood pressure change from baseline, Mean (SD)” value (Week 12, mPPS2)?
A: −4.33 mmHg

Q: And the “Diastolic blood pressure change from baseline, Median” value (Week 12, mPPS2)?
A: −4.00 mmHg

Q: And the “Diastolic blood pressure, Mean (SD)” value (Week 12, mPPS2)?
A: 72.66 mmHg

Q: What about the “Diastolic blood pressure, Median” value (Week 12, mPPS2) of the same compound?
A: 72.00 mmHg

Q: And the “Systolic blood pressure change from baseline, ANCOVA LS mean (SE)” value (Week 12, mPPS2)?
A: −5.86(1.04) mmHg

Q: And the “Systolic blood pressure change from baseline, Mean (SD)” value (Week 12, mPPS2)?
A: −6.42(9.73) mmHg

Q: What about the “Systolic blood pressure change from baseline, Median” value (Week 12, mPPS2) of the same compound?
A: −6.00 mmHg

Q: What about the “Systolic blood pressure, Mean (SD)” value (Week 12, mPPS2) of the same compound?
A: 123.29(13.73) mmHg

Q: And the “Systolic blood pressure, Median” value (Week 12, mPPS2)?
A: 123.00 mmHg

Q: And the “diastolic blood pressure change from baseline, LS mean difference” value [2]?
A: 0.16 mmHg

Q: What about the “systolic blood pressure change from baseline, LS mean difference” value [2] of the same compound?
A: 0.26 mmHg

Q: And the Adiponectin change from baseline, ANCOVA LS mean (SE) (Week 18, PPS)?
A: 1.33 µg/mL

Q: What about the Adiponectin change from baseline, Mean (SD) (Week 18, PPS) of the same compound?
A: 1.26 µg/mL

Q: What about the Adiponectin change from baseline, Median (Week 18, PPS) of the same compound?
A: 1.14 µg/mL

Q: And the Adiponectin, Mean (SD) (Week 18, PPS)?
A: 8.3 µg/mL

Q: And the Adiponectin, Median (Week 18, PPS)?
A: 7.33 µg/mL

Q: And the “HOMA-IR change from baseline, ANCOVA LS mean (SE)” value (Week 18, PPS)?
A: −1.79

Q: And the “HOMA-IR change from baseline, Mean (SD)” value (Week 18, PPS)?
A: −1.58

Q: And the “HOMA-IR change from baseline, Median” value (Week 18, PPS)?
A: −0.94

Q: And the “HOMA-IR, Mean (SD)” value (Week 18, PPS)?
A: 1.86

Q: And the “HOMA-IR, Median” value (Week 18, PPS)?
A: 1.51

Q: And the “HOMA-β change from baseline, ANCOVA LS mean (SE)” value (Week 18, PPS)?
A: 10.97

Q: And the “HOMA-β change from baseline, Mean (SD)” value (Week 18, PPS)?
A: 10.63

Q: What about the “HOMA-β change from baseline, Median” value (Week 18, PPS) of the same compound?
A: 5.75

Q: What about the “HOMA-β, Mean (SD)” value (Week 18, PPS) of the same compound?
A: 56.39

Q: What about the “HOMA-β, Median” value (Week 18, PPS) of the same compound?
A: 40.45

Q: And the “Leptin change from baseline, ANCOVA LS mean (SE)” value (Week 18, PPS)?
A: -2.49 ng/mL

Q: And the “Leptin change from baseline, Mean (SD)” value (Week 18, PPS)?
A: -2.50 ng/mL

Q: What about the “Leptin change from baseline, Median” value (Week 18, PPS) of the same compound?
A: -1.32 ng/mL

Q: And the “Leptin, Mean (SD)” value (Week 18, PPS)?
A: 9.71 ng/mL

Q: And the “Leptin, Median” value (Week 18, PPS)?
A: 7.22 ng/mL

Q: And the “UACR change from baseline, ANCOVA LS mean (SE)” value (Week 18, PPS)?
A: -23.05 g/kg

Q: And the “UACR change from baseline, Mean (SD)” value (Week 18, PPS)?
A: -17480 mg/kg

Q: And the “UACR change from baseline, Median” value (Week 18, PPS)?
A: -0.70 g/kg

Q: And the “UACR, Mean (SD)” value (Week 18, PPS)?
A: 20320 mg/kg

Q: And the “UACR, Median” value (Week 18, PPS)?
A: 9.80 g/kg

Q: What about the “UGCR change from baseline, ANCOVA LS mean (SE)” value (Week 18, PPS) of the same compound?
A: 60.97 mg/mg

Q: And the “UGCR change from baseline, Mean (SD)” value (Week 18, PPS)?
A: 59.41 mg/mg

Q: What about the “UGCR change from baseline, Median” value (Week 18, PPS) of the same compound?
A: 57.54 mg/mg

Q: What about the “UGCR, Mean (SD)” value (Week 18, PPS) of the same compound?
A: 60.98 mg/mg

Q: And the “UGCR, Median” value (Week 18, PPS)?
A: 58.42 mg/mg

Q: And the “HOMA-IR change from baseline, LS mean difference” value [3]?
A: −0.32

Q: What about the “HOMA-β change from baseline, LS mean difference” value [3] of the same compound?
A: −2.53

Q: What about the “UACR change from baseline, LS mean difference” value [3] of the same compound?
A: -10.10 g/kg

Q: And the “UGCR change from baseline, LS mean difference” value [3]?
A: 18.25 mg/mg

Q: What about the “leptin change from baseline, LS mean difference” value [3] of the same compound?
A: -1.26 ng/mL

Q: What about the “HDL-C change from baseline, ANCOVA LS mean (SE)” value (Week 18, mPPS1) of the same compound?
A: 2.46(0.66) mg/dL

Q: What about the “HDL-C change from baseline, Mean (SD)” value (Week 18, mPPS1) of the same compound?
A: 1.89(6.20) mg/dL

Q: And the “HDL-C change from baseline, Median” value (Week 18, mPPS1)?
A: 2.50 mg/dL

Q: What about the “HDL-C, Mean (SD)” value (Week 18, mPPS1) of the same compound?
A: 53.49(11.50) mg/dL

Q: And the “HDL-C, Median” value (Week 18, mPPS1)?
A: 52.50 mg/dL

Q: What about the “LDL-C change from baseline, ANCOVA LS mean (SE)” value (Week 18, mPPS1) of the same compound?
A: 1.42(1.86) mg/dL

Q: What about the “LDL-C change from baseline, Mean (SD)” value (Week 18, mPPS1) of the same compound?
A: 0.50(14.20) mg/dL

Q: And the “LDL-C change from baseline, Median” value (Week 18, mPPS1)?
A: -1.00 mg/dL
